Measured values reported in patent publication US9908877B2, “Imidazo[1,5-a]pyridinium ion fluorophores, and methods of making and using the same” (Indiana University Research and Technology Corporation, priority 2013, dated 2018).

Key:
Type in all cases: physicochemical
[1] = Fluorescence quantum yield, integrating sphere
Description: Method for Determining Quantum Yield
Quantum yield is determined using an integrating sphere attached to a QM-4-CW Spectrofluorometer using FeliX32 software (Photon Technology International).
(§1) The compounds were analyzed at 298° K according to the Method for Obtaining Ultraviolet-Visible Light Spectrum (30 μM acetonitrile) to obtain the maximum absorbance wavelength (λabs,max), Method for Obtaining Fluorescence Emission Spectrum (30 μM acetonitrile) to obtain the maximum emission wavelength (λem,max) and Method for Determining Quantum Yield (ΦF) (30 μM acetonitrile) at the concentration, in the solvent, and with the counter ion indicated in Table 1. The compounds included hydrogen at each R group that is not otherwise specified.
(§2) Compounds 6, 7, 9, 11-14 and 21 were analyzed according to: the Method for Obtaining Ultraviolet-Visible Light Spectrum to obtain the maximum absorbance wavelength (λabs,max), the Method for Obtaining Fluorescence Emission Spectrum to obtain the maximum emission wavelength (λem,max), and the Method for Determining Quantum Yield (ΦF) in the solvent and with the counter ion indicated in Table 3.

[2] = Fluorescence response to pH in buffered water; settings: buffered water, 298 K, pH from 7.5 to 2.5
Description: Stock solutions of each compound (having a concentration of from 1-5 mM) were prepared by dissolving the corresponding salts of the compounds in methanol or 1V, N-dimethylformamide, and then diluting the same with acetonitrile or buffered water having a pH of from 2.5 to 7.5 derived from 0.2 M […] and 0.1 M citric acid, to achieve a sample solution having a compound concentration of 30.0 μM.
The emission spectrum for each sample was obtained. The results are illustrated by the plot in FIG. 2A.
The emission spectrum for each sample was obtained. […] The results are illustrated in the plot of FIG. 2B.
The fluorescence emission spectrum of Compound 8 in water having a pH of 2.5 was also obtained and is illustrated by the curved line with a peak at 360 nm in FIG. 5B.
Compounds 10, 11, and 12 were each individually added, at a concentration of 30 μM, to water having a pH=7.5 and the emission spectra of each were obtained. […] As the pH was decreased from 7.5 to 2.5 in 0.5 pH unit increments, fluorescence emission at 600 nm remained relatively nonexistent and the intensity of the fluorescence emission at 400 nm increased in correlation to the decrease in pH. FIG. 8A illustrates the emission properties of Compound 12.

[3] = Ultraviolet-visible light spectrum (maximum absorbance wavelength)
Description: Method for Obtaining an Ultraviolet-Visible Light Spectrum
Ultraviolet-visible (UV-Vis) Light spectra are obtained and recorded on an Agilent 8453 spectrophotometer using ChemStation software (Agilent Technologies, Inc., Santa Clara, Calif.).
as §1, §2

[…]F (quantum yield) ([1]; H2O (pH not given), 30 μM): 16%
[…]F (quantum yield) ([1]; H2O pH = 2.5, 30 μM): 31%
[…]F (quantum yield) ([1]; MeCN + 13.8 uL TFA, 30 μM): 49%
[…]F (quantum yield) ([1]; MeCN, 30 μM): 59%
λem,max of the emission that decreases as pH decreases [2]: 580 nm
λem,max of the emission that increases as pH decreases [2]: 400 nm
λabs, max Abs ([3]; H2O (pH not given), 30 μM): 350 nm
λabs, max Abs ([3]; H2O pH = 2.5, 30 μM): 350 nm
λabs, max Abs ([3]; MeCN + 13.8 uL TFA, 30 μM): 350 nm
λabs, max Abs ([3]; MeCN, 30 μM): 350 nm
Structure (SMILES): CCN(CC)c1ccc(-c2c3cccc[n+]3cn2-c2ccc(OC)cc2)cc1.[Cl-] [Compound 6, 1-(4-(diethylamino)phenyl)-2-(4-methoxyphenyl)-2H-imidazo[1,5-a]pyridin-4-ium chloride]
